The supplement of paper PMC4862054

Experiments:
Details in all cases: incubation time: 72 h
BT-549 [1] = assay: normalised response (% of control), CellTox Green; higher = less cell death (100 = DMSO, 0 = benzethonium chloride kill control)
In short: (§1)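 For each plate, 0.1 % DMSO was set to 100 and a positive kill control to 0. Breast cancer cell lines (20 µl suspension) were seeded into 384-well plates already holding compound at 5 concentrations in 10-fold steps over a 10,000-fold range chosen per compound, and incubated for 72 h. CellTox Green fluorescence at 485/520 nm was read before CellTiter-Glo luminescence, which followed 10 min at room temperature. Each value is the normalised signal at one concentration.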

BT-474 [2] = assay: as above
In short: as §1

MFM-223 [3] = assay: as above
In short: as §1

CAL-148 [4] = assay: as above
In short: as §1

Hs578T [5] = assay: as above
In short: as §1

CAL-120 [6] = assay: as above
In short: as §1

DU-4475 [7] = assay: as above
In short: as §1

HCC1143 [8] = assay: as above
In short: as §1

MDA-MB-436 [9] = assay: as above
In short: as §1

CAL-85-1 [10] = assay: as above
In short: as §1

MDA-MB-468 [11] = assay: as above
In short: as §1

HCC1599 [12] = assay: as above
In short: as §1

MCF-10A [13] = assay: as above
In short: as §1

HDQ-P1 [14] = assay: as above
In short: as §1

CAL-51 [15] = assay: as above
In short: as §1

MDA-MB-453 [16] = assay: as above
In short: as §1

HCC1937 [17] = assay: as above
In short: as §1

MDA-MB-231 [18] = assay: as above
In short: as §1

BT-549 [19] = assay: normalised response (% of control), CellTiter-Glo; higher = more viable cells (100 = DMSO, 0 = benzethonium chloride kill control)
Method: (§2)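 DSRT, 72 h incubation, CellTox Green / CellTiter-Glo readout. Signal is normalised to DMSO and benzethonium chloride controls. Value is the normalised response at the highest dose.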

BT-474 [20] = assay: as above
Method: as §2

MFM-223 [21] = assay: as above
Method: as §2

CAL-148 [22] = assay: as above
Method: as §2

Hs578T [23] = assay: as above
Method: as §2

CAL-120 [24] = assay: as above
Method: as §2

SK-BR-3 = assay: as above
Method: as §2

DU-4475 [25] = assay: as above
Method: as §2

HCC1143 [26] = assay: as above
Method: as §2

MDA-MB-436 [27] = assay: as above
Method: as §2

CAL-85-1 [28] = assay: as above
Method: as §2

MDA-MB-468 [29] = assay: as above
Method: as §2

HCC1599 [30] = assay: as above
Method: as §2

MCF-10A [31] = assay: as above
Method: as §2

HDQ-P1 [32] = assay: as above
Method: as §2

CAL-51 [33] = assay: as above
Method: as §2

MDA-MB-453 [34] = assay: as above
Method: as §2

HCC1937 [35] = assay: as above
Method: as §2

MDA-MB-231 [36] = assay: as above
Method: as §2

| SMILES | normalised response (BT-549 [1]) | normalised response (BT-474 [2]) | normalised response (MFM-223 [3]) | normalised response (CAL-148 [4]) | normalised response (Hs578T [5]) | normalised response (CAL-120 [6]) | normalised response (DU-4475 [7]) | normalised response (HCC1143 [8]) | normalised response (MDA-MB-436 [9]) | normalised response (CAL-85-1 [10]) | normalised response (MDA-MB-468 [11]) | normalised response (HCC1599 [12]) | normalised response (MCF-10A [13]) | normalised response (HDQ-P1 [14]) | normalised response (CAL-51 [15]) | normalised response (MDA-MB-453 [16]) | normalised response (HCC1937 [17]) | normalised response (MDA-MB-231 [18]) | normalised response (BT-549 [19]) | normalised response (BT-474 [20]) | normalised response (MFM-223 [21]) | normalised response (CAL-148 [22]) | normalised response (Hs578T [23]) | normalised response (CAL-120 [24]) | normalised response (SK-BR-3) | normalised response (DU-4475 [25]) | normalised response (HCC1143 [26]) | normalised response (MDA-MB-436 [27]) | normalised response (CAL-85-1 [28]) | normalised response (MDA-MB-468 [29]) | normalised response (HCC1599 [30]) | normalised response (MCF-10A [31]) | normalised response (HDQ-P1 [32]) | normalised response (CAL-51 [33]) | normalised response (MDA-MB-453 [34]) | normalised response (HCC1937 [35]) | normalised response (MDA-MB-231 [36]) |
| --- | --- | --- | --- | --- | --- | --- | --- | --- | --- | --- | --- | --- | --- | --- | --- | --- | --- | --- | --- | --- | --- | --- | --- | --- | --- | --- | --- | --- | --- | --- | --- | --- | --- | --- | --- | --- | --- |
| Cc1ccc([N+](=O)[O-])cc1S(=O)(=O)N(C)/N=C/c1cnc2ccc(Br)cn12 [PIK-75] (10000 nM) | -7.34% | 7.46% | 18.6% | 65.1% | -10.9% | 81.7% | 74.7% | 54.4% | 76% | 50.7% | 31.6% | 72.6% | -39.7% | 66.3% | -5.71% | 51.3% | 24.7% | -38.5% | 1.57% | 8.5% | 3.73% | 37.5% | 0.96% | 26.6% | 0.21% | 1.22% | 12.6% | 15% | 7.97% | 2.17% | 8.43% | -0.11% | 17.4% | 5.22% | 0.48% | 6.99% | 1.78% |
| CC(=O)c1c(C)c2cnc(Nc3ccc(N4CCNCC4)cn3)nc2n(C2CCCC2)c1=O [Palbociclib] (10000 nM) | 106% | 96% | 90.1% |  | 135% | 102% | 97% | 101% | 68.1% | 103% | 193% | 99.4% | 74.4% | 50.1% | 94.1% | 61.4% | 89% | 121% | 79.3% | 69.7% | 65.9% | 80.4% | 86.9% | 77.7% | 52.9% | 86.9% | 76.5% | 74.4% | 70.4% | 68.2% | 86.5% | 65.8% | 86.3% | 55% | 92.7% | 93.2% | 84.3% |
| COc1cc(F)c(F)c(Nc2ccc(I)cc2F)c1NS(=O)(=O)C1(C[C@H](O)CO)CC1 [Refametinib] (10000 nM) | 101% | 99.6% | 97.9% | 75.8% | 97.8% | 92% | 69.6% | 106% | 95.6% | -0.94% | -53.7% | 107% | 65.8% | 82.1% | 101% | 102% | 88.4% | 64.1% | 65.7% | 47.8% | 41% | 65.8% | 55.1% | 55.7% | 77.2% | 0.11% | 67.3% | 54.8% | 23.8% | 45.2% | 102% | 25% | 43.6% | 92.5% | 82.7% | 58.5% | 43.7% |
